# Measured values reported in patent US6211155A, “Peptide conjugates derived from thymic hormones, their use as a medicament and compositions containing them” (Institut European de Biologie Cellulaire, priority 1995, dated 2001).
# Where no end group is shown, it is not given here.
# Experiments:
# Ia+ Langerhans cells = experiment: Ia+ Langerhans cell density after topical application to mouse ear; assay type: in vivo, C57-BL/6 mice; conditions: for Number of Ia+ cells per mm^2 of epidermis, batch 1 / Number of Ia+ cells per mm^2 of epidermis, batch 2 / Number of Ia+ cells per mm^2 of epidermis, batch 3 / Number of Ia+ cells per mm^2 of epidermis, batch 4 / Number of Ia+ cells per mm^2 of epidermis, Mean: C 57 BL/6 mice; for Number of Ia+ cells per mm^2 of epidermis, Mean: 4 batches; for Ia+ cells %: relative to PG controls
# Protocol: (§1) I--Experimental Samples--Code: ETF
# (§2) In solution in propylene glycol at a concentration of 10^-5 M/ml
# (§3) 5 to 7-week-old male C 57-BL/6 mice, which are divided into groups of 4 per cage, and which have free access to water and food and which are subjected to a photoperiod of 12 h of light per 24 hours, are given a topical application of the peptide in propylene glycol (50 μl vol) on the dorsal surface of the ear daily for 5 consecutive days.
# (§4) The animals are sacrificed on day 6. The ears are removed, with the dorsal and ventral surfaces being separated.
# (§5) The tissues of the dorsal surface are immersed in Na EDTA (0.020 M) at 37° C. for 2 h.
# (§6) After incubation, the epidermis is removed in the form of an intact sheet, fixed with acetone and rehydrated in PBS (phosphate buffer).
# (§7) The Thy 1-2+ and Ia+ EDC (epidermal dendritic cells) are identified by indirect immunofluorescence double labeling.
# (§8) In the case of each epidermal sheet, the number of cells per mm^2 is determined using the peripheral regions of the same surface.
# The EDC (epidermal dendritic cells) carrying the Ia+ marker were identified using an anti-Ia+ monoclonal antibody.
# The epidermal sheets are fixed with acetone and then incubated, at 37° C. for 1 h, in the presence of the anti-Ia+ monoclonal antibody, which has been labeled by the indirect immunoperoxidase method (Kit).
# After having been incubated at 37° C. for 10 minutes with a solution of aminoethylcarbazole, the preparation is washed with PBS.
# (§9) In the case of each epidermal sheet, the number of Ia+ Langerhans cells or Thy 1.2+ EDCs per square millimeter was determined by means of immunofluorescence, using a confocal Zeiss microscope which was equipped for this purpose, in four peripheral areas of the same surface. At least four animals were studied in each of the groups. The density of Ia+ Langerhans cells and Thy 1.2+ EDCs is shown for each measurement.
# [1] = system: Thy 1.2+ thymocytes of the epidermis; experiment: Thy 1.2+ epidermal cell density after topical application to mouse ear (immunofluorescence); assay type: in vivo, C57-BL/6 mice; conditions: for Number of Thy 1.2+ cells per mm^2 of epidermis, batch 1 / Number of Thy 1.2+ cells per mm^2 of epidermis, batch 2 / Number of Thy 1.2+ cells per mm^2 of epidermis, batch 3 / Number of Thy 1.2+ cells per mm^2 of epidermis, batch 4 / Number of Thy 1.2+ cells per mm^2 of epidermis, Mean: C 57 BL/6 mice; for Number of Thy 1.2+ cells per mm^2 of epidermis, Mean: 4 batches; for Thy 1.2+ cells % T: relative to PG controls
# Protocol: as §1, §2, §3, §4, §5, §6, §7, §8
# The Thy 1.2+ EDC were identified by indirect immunofluorescence double labeling. The epidermal sheets were fixed with acetone and then rehydrated in PBS.
# The tissues were labeled simultaneously, at 4° C. for 16 h, with mouse anti-Thy 1.2+ antibody which was diluted 1:100. The tissue samples were washed three times in PBS for 60 min and then incubated, at 37° C. for 60 min, either with goat antimouse antibody which was coupled to rhodamine and diluted 1:20, or with goat antirabbit antibody which was coupled to fluorescein (fluorescine and diluted 1:20 in PBS. The tissues were then washed in PBS before being mounted as previously described.
# as §9
Substance,"Number of Ia+ cells per mm^2 of epidermis, batch 1 (Ia+ Langerhans cells; dose 0.10 Nanog.) [cells per mm^2]","Number of Ia+ cells per mm^2 of epidermis, batch 2 (Ia+ Langerhans cells; dose 0.10 Nanog.) [cells per mm^2]","Number of Ia+ cells per mm^2 of epidermis, batch 3 (Ia+ Langerhans cells; dose 0.10 Nanog.) [cells per mm^2]","Number of Ia+ cells per mm^2 of epidermis, batch 4 (Ia+ Langerhans cells; dose 0.10 Nanog.) [cells per mm^2]","Number of Ia+ cells per mm^2 of epidermis, Mean (Ia+ Langerhans cells; dose 0.10 Nanog.) [cells per mm^2]",Ia+ cells % (Ia+ Langerhans cells; dose 0.10 Nanog.) [%],"Number of Ia+ cells per mm^2 of epidermis, batch 1 (Ia+ Langerhans cells; dose 0.50 Nanog.) [cells per mm^2]","Number of Ia+ cells per mm^2 of epidermis, batch 2 (Ia+ Langerhans cells; dose 0.50 Nanog.) [cells per mm^2]","Number of Ia+ cells per mm^2 of epidermis, batch 3 (Ia+ Langerhans cells; dose 0.50 Nanog.) [cells per mm^2]","Number of Ia+ cells per mm^2 of epidermis, batch 4 (Ia+ Langerhans cells; dose 0.50 Nanog.) [cells per mm^2]","Number of Ia+ cells per mm^2 of epidermis, Mean (Ia+ Langerhans cells; dose 0.50 Nanog.) [cells per mm^2]",Ia+ cells % (Ia+ Langerhans cells; dose 0.50 Nanog.) [%],"Number of Ia+ cells per mm^2 of epidermis, batch 1 (Ia+ Langerhans cells; dose 1.00 Nanog.) [cells per mm^2]","Number of Ia+ cells per mm^2 of epidermis, batch 2 (Ia+ Langerhans cells; dose 1.00 Nanog.) [cells per mm^2]","Number of Ia+ cells per mm^2 of epidermis, batch 3 (Ia+ Langerhans cells; dose 1.00 Nanog.) [cells per mm^2]","Number of Ia+ cells per mm^2 of epidermis, batch 4 (Ia+ Langerhans cells; dose 1.00 Nanog.) [cells per mm^2]","Number of Ia+ cells per mm^2 of epidermis, Mean (Ia+ Langerhans cells; dose 1.00 Nanog.) [cells per mm^2]",Ia+ cells % (Ia+ Langerhans cells; dose 1.00 Nanog.) [%],"Number of Thy 1.2+ cells per mm^2 of epidermis, batch 1 ([1]; dose 0.10 Nanog.) [cells per mm^2]","Number of Thy 1.2+ cells per mm^2 of epidermis, batch 2 ([1]; dose 0.10 Nanog.) [cells per mm^2]",other results
"Adipoyl-Ala-Lys-Ser-Gln-Gly-Gly-Ser-Asn-NH2 (AKSQGGSN-NH2; not fully specified (N-terminus)) [ETF-III, A of the tested sample not restated]",376,382,387,399,386.00,277,380,388,299,388,363.75,255,305,400,398,410,378.25,269,168,165,"Number of Thy 1.2+ cells per mm^2 of epidermis, batch 3 ([1]; dose 0.10 Nanog.): 180 cells per mm^2; Number of Thy 1.2+ cells per mm^2 of epidermis, batch 4 ([1]; dose 0.10 Nanog.): 176 cells per mm^2; Number of Thy 1.2+ cells per mm^2 of epidermis, Mean ([1]; dose 0.10 Nanog.): 172.25 cells per mm^2; Thy 1.2+ cells % T ([1]; dose 0.10 Nanog.): 95%; Number of Thy 1.2+ cells per mm^2 of epidermis, batch 1 ([1]; dose 0.50 Nanog.): 190 cells per mm^2; Number of Thy 1.2+ cells per mm^2 of epidermis, batch 2 ([1]; dose 0.50 Nanog.): 190 cells per mm^2; Number of Thy 1.2+ cells per mm^2 of epidermis, batch 3 ([1]; dose 0.50 Nanog.): 205 cells per mm^2; Number of Thy 1.2+ cells per mm^2 of epidermis, batch 4 ([1]; dose 0.50 Nanog.): 200 cells per mm^2; Number of Thy 1.2+ cells per mm^2 of epidermis, Mean ([1]; dose 0.50 Nanog.): 196.25 cells per mm^2; Thy 1.2+ cells % T ([1]; dose 0.50 Nanog.): 122%; Number of Thy 1.2+ cells per mm^2 of epidermis, batch 1 ([1]; dose 1.00 Nanog.): 200 cells per mm^2; Number of Thy 1.2+ cells per mm^2 of epidermis, batch 2 ([1]; dose 1.00 Nanog.): 220 cells per mm^2; Number of Thy 1.2+ cells per mm^2 of epidermis, batch 3 ([1]; dose 1.00 Nanog.): 216 cells per mm^2; Number of Thy 1.2+ cells per mm^2 of epidermis, batch 4 ([1]; dose 1.00 Nanog.): 210 cells per mm^2; Number of Thy 1.2+ cells per mm^2 of epidermis, Mean ([1]; dose 1.00 Nanog.): 211.50 cells per mm^2; Thy 1.2+ cells % T ([1]; dose 1.00 Nanog.): 140%"
"A-Arg-Lys-Asp-Val-Tyr-NH2 (RKDVY; not fully specified (N-terminus, C-terminus)) [ETF-XV, A not specified for the tested sample; b149 names acetic acid-Arg-Lys-Asp-Val-Tyr-NH2]",315,326,320,330,322.75,215,305,345,330,345,331.25,223,348,360,348,350,351.50,243,160,158,"Number of Thy 1.2+ cells per mm^2 of epidermis, batch 3 ([1]; dose 0.10 Nanog.): 160 cells per mm^2; Number of Thy 1.2+ cells per mm^2 of epidermis, batch 4 ([1]; dose 0.10 Nanog.): 170 cells per mm^2; Number of Thy 1.2+ cells per mm^2 of epidermis, Mean ([1]; dose 0.10 Nanog.): 162.00 cells per mm^2; Thy 1.2+ cells % T ([1]; dose 0.10 Nanog.): 84%; Number of Thy 1.2+ cells per mm^2 of epidermis, batch 1 ([1]; dose 0.50 Nanog.): 176 cells per mm^2; Number of Thy 1.2+ cells per mm^2 of epidermis, batch 2 ([1]; dose 0.50 Nanog.): 168 cells per mm^2; Number of Thy 1.2+ cells per mm^2 of epidermis, batch 3 ([1]; dose 0.50 Nanog.): 170 cells per mm^2; Number of Thy 1.2+ cells per mm^2 of epidermis, batch 4 ([1]; dose 0.50 Nanog.): 186 cells per mm^2; Number of Thy 1.2+ cells per mm^2 of epidermis, Mean ([1]; dose 0.50 Nanog.): 175.00 cells per mm^2; Thy 1.2+ cells % T ([1]; dose 0.50 Nanog.): 98%; Number of Thy 1.2+ cells per mm^2 of epidermis, batch 1 ([1]; dose 1.00 Nanog.): 198 cells per mm^2; Number of Thy 1.2+ cells per mm^2 of epidermis, batch 2 ([1]; dose 1.00 Nanog.): 180 cells per mm^2; Number of Thy 1.2+ cells per mm^2 of epidermis, batch 3 ([1]; dose 1.00 Nanog.): 188 cells per mm^2; Number of Thy 1.2+ cells per mm^2 of epidermis, batch 4 ([1]; dose 1.00 Nanog.): 199 cells per mm^2; Number of Thy 1.2+ cells per mm^2 of epidermis, Mean ([1]; dose 1.00 Nanog.): 191.25 cells per mm^2; Thy 1.2+ cells % T ([1]; dose 1.00 Nanog.): 117%"
"A-Pyr-Ala-Lys-Ser-Gln-Gly-Gly-Ser-Asn-NH2 (AKSQGGSN; not fully specified (N-terminus, C-terminus); printed as A-Pyr-Ala-Lys-Ser-Gln-Gly-Gly-Ser-Asn-NH2) [ETF-I, A of the tested sample not restated]",368,388,378,395,382.25,273,360,392,386,399,384.25,275,372,410,390,412,396.00,286,197,180,"Number of Thy 1.2+ cells per mm^2 of epidermis, batch 3 ([1]; dose 0.10 Nanog.): 192 cells per mm^2; Number of Thy 1.2+ cells per mm^2 of epidermis, batch 4 ([1]; dose 0.10 Nanog.): 207 cells per mm^2; Number of Thy 1.2+ cells per mm^2 of epidermis, Mean ([1]; dose 0.10 Nanog.): 194.00 cells per mm^2; Thy 1.2+ cells % T ([1]; dose 0.10 Nanog.): 120%; Number of Thy 1.2+ cells per mm^2 of epidermis, batch 1 ([1]; dose 0.50 Nanog.): 200 cells per mm^2; Number of Thy 1.2+ cells per mm^2 of epidermis, batch 2 ([1]; dose 0.50 Nanog.): 208 cells per mm^2; Number of Thy 1.2+ cells per mm^2 of epidermis, batch 3 ([1]; dose 0.50 Nanog.): 199 cells per mm^2; Number of Thy 1.2+ cells per mm^2 of epidermis, batch 4 ([1]; dose 0.50 Nanog.): 219 cells per mm^2; Number of Thy 1.2+ cells per mm^2 of epidermis, Mean ([1]; dose 0.50 Nanog.): 206.50 cells per mm^2; Thy 1.2+ cells % T ([1]; dose 0.50 Nanog.): 134%; Number of Thy 1.2+ cells per mm^2 of epidermis, batch 1 ([1]; dose 1.00 Nanog.): 214 cells per mm^2; Number of Thy 1.2+ cells per mm^2 of epidermis, batch 2 ([1]; dose 1.00 Nanog.): 210 cells per mm^2; Number of Thy 1.2+ cells per mm^2 of epidermis, batch 3 ([1]; dose 1.00 Nanog.): 208 cells per mm^2; Number of Thy 1.2+ cells per mm^2 of epidermis, batch 4 ([1]; dose 1.00 Nanog.): 226 cells per mm^2; Number of Thy 1.2+ cells per mm^2 of epidermis, Mean ([1]; dose 1.00 Nanog.): 214.50 cells per mm^2; Thy 1.2+ cells % T ([1]; dose 1.00 Nanog.): 143%"
